Experimental data: paper PMC3266722 (Journal of Medicinal Chemistry, 2011)
pEC50: −log10 of the molar value. One block for each compound: values may come before it.

Key:
hA2AAR [1] = target: T1, hA2AAR (Homo sapiens, UniProt P29274); details: compared to the standard CGS21680; cited from earlier work
hA2BAR = target: T2, hA2BAR (Homo sapiens, UniProt P29275); details: read-out: EC50, cyclic AMP accumulation at hA2BAR; CHO cells; cited from earlier work
T2 sequence (P29275 1-332): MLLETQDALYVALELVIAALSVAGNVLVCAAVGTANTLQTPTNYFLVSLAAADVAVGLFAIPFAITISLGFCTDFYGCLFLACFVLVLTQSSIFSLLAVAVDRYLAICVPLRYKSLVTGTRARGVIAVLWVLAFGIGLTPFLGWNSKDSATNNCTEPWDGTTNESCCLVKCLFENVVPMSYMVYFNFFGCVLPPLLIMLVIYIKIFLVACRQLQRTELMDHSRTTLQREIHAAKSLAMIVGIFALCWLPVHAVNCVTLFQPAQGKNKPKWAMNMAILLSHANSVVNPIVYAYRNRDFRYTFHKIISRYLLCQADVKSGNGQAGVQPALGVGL

hA1AR = target: T3, hA1AR (Homo sapiens, UniProt P30542); details: percent inhibition of specific radioligand binding at 10 μM; ref [11]; cited from earlier work
T3 sequence (P30542 1-326): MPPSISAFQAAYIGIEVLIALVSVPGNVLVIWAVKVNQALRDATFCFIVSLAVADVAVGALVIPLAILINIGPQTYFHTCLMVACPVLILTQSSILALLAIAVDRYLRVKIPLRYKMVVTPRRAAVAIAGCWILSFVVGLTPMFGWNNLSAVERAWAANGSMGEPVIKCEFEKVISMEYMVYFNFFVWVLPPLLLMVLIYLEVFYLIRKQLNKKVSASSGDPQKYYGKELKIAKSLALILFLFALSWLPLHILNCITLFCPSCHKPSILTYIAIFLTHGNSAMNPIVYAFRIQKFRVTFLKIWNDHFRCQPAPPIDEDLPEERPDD

hA2AAR [2] = target: T1, hA2AAR; assay: Radioligand binding assay at human A2A receptor; details: ratio of Ki values
hA2AAR [3] = target: T1, hA2AAR; details: percent inhibition of specific radioligand binding at 10 μM; ref [11]; cited from earlier work

T1 sequence (P29274 whole entry): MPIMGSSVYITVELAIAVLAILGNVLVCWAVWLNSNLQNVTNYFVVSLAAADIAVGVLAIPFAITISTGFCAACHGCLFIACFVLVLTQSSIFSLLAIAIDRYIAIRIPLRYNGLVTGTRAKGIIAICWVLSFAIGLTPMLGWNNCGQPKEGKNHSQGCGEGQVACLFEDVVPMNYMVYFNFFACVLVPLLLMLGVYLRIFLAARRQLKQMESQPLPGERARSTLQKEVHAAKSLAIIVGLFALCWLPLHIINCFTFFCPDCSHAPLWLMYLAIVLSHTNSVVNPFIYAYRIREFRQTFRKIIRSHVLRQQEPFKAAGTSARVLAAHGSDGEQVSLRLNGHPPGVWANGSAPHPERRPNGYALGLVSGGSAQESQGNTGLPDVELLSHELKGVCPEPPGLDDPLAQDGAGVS

Compound: CCCCC#Cc1nc(N)c2ncn([C@@H]3SCC(O)C3O)c2n1 (stereo in doubt) [Compound 4g, (−)-(2R,3S,4R)-2-(6-Amino-2-(hex-1-ynyl)-9H-purin-9-yl)tetrahydrothiophene-3,4-diol]
- agonist efficacy at hA2AAR (hA2AAR [1]): full agonist
- pEC50 (hA2BAR): ~5.00
- Affinity (% inhibition) hA1 (hA1AR): 39 ± 10%

- decrease of hA2AAR binding affinity in comparison to 4g (hA2AAR [2]): 520 fold
Compound: CCCCC#Cc1nc(NCc2cccc(Cl)c2)c2ncn([C@@H]3SCC(O)C3O)c2n1 (stereo in doubt) [Compound 4i, (−)-(2R,3S,4R)-2-(6-(3-Chlorobenzylamino)-2-(hex-1-ynyl)-9H-purin-9-yl)tetrahydrothiophene-3,4-diol]

Compound: CCCCC#Cc1nc2c(N)ncnc2n1[C@@H]1SCC(O)C1O (stereo in doubt) [Compound 4o, (−)-(2R,3S,4R)-2-(6-Amino-8-(hex-1-ynyl)-9H-purine-9-yl)-tetrahydrothiophene-3,4-diol]
- Affinity (% inhibition) hA2A (hA2AAR [3]): 46.5 ± 4.3%
- Affinity (% inhibition) hA1 (hA1AR): 49.3 ± 4.9%

Compound: CCCC/C=C/c1nc2c(N)ncnc2n1[C@@H]1SCC(O)C1O (stereo in doubt) [Compound 4r, (−)-(2R,3S,4R)-2-(6-Amino-8-(hex-1-enyl)-9H-purine-9-yl)-tetrahydrothiophene-3,4-diol]
- Affinity (% inhibition) hA2A (hA2AAR [3]): 22.8 ± 6.4%
- Affinity (% inhibition) hA1 (hA1AR): 3.7 ± 2.9%

Compound: CCCC/C=C/c1nc(N)c2ncn([C@@H]3SC[C@@H](O)[C@H]3O)c2n1 [Compound 4m]
- Affinity (% inhibition) hA1 (hA1AR): 16.2 ± 8.4%
